These results are taken from paper PMC8129719 (CPT: Pharmacometrics & Systems Pharmacology, 2021).

Where “and” joins values, the source holds several entries; their conditions need not be identical. Equal values may be shown once. Where a name gives a salt, the structure may show the parent alone. Read-outs that look alike come from different tables or passages of the source.

For data set [1] the following is noted: probenecid 500 mg 4 times a day; ref Willemin et al. (accepted for publication); cited from earlier work.
Data set [2] is classed as in vivo, human. Conditions: for CL renal: female, human, plasma and urine, oral; for contribution of renal elimination to total clearance: from model CLr and CLnr; for CLr, IIV (SE%) / k syn, IIV (SE%): interindividual variability; for CLnr, population estimate (SE%): nonrenal clearance of biomarker; for V, population estimate (SE%): volume of distribution of biomarker; for k syn, population estimate (SE%): zero-order synthesis rate.

For data set [3] the following is noted: probenecid 1000 mg single dose, 14 healthy volunteers, digitized data; cited from earlier work.
A short description of data set [4]: Population PK model of probenecid plasma data. Format: in vivo, human. Conditions: for CL, IIV (SE%) / V, IIV (SE%): interindividual variability.

As to `C[C@H](CCC(=O)NCC(=O)O)[C@H]1CC[C@H]2[C@@H]3[C@H](O)C[C@@H]4C[C@H](OS(=O)(=O)O)CC[C@]4(C)[C@H]3CC[C@]12C` [GCDCA-S, glycochenodeoxycholate sulfate], in data set [1], the “fold change of plasma AUC0-24 h following probenecid” value (“fold change” below) is reported as 1.9 fold.
For `COc1cc(CC(=O)O)ccc1O` [HVA, homovanillic acid], in data set [2], the CL renal is 340 mL/min; the “contribution of renal elimination to total clearance” value is listed as 94%; the “CLr, IIV (SE%)” value is 23 (26) %; the “k syn, IIV (SE%)” value is given as 27 (19) %. Besides, in data set [2], the “CLnr, population estimate (SE%)” value is given as 1.29 (69) L/h; the “V, population estimate (SE%)” value was 105 (35) L; the “k syn, population estimate (SE%)” value was 212 (16) µg/h. The “CLr, IOV (SE%)” value in data set [2] (interoccasion variability) is listed as 5 (48) %. The “fold change” value in data set [1] is reported as 2.2 fold.
For the compound `Cc1ncc(CO)c(C(=O)O)c1O` [PDA, Pyridoxic acid], in data set [2], the CL renal is 253 mL/min; the “contribution of renal elimination to total clearance” value stood at 82%; the “CLr, IIV (SE%)” value was 27% and 27 (15) %; the “k syn, IIV (SE%)” value is 32% and 32 (34) %. In data set [2], the “CLnr, population estimate (SE%)” value is reported as 3.23 (41) L/h; the “V, population estimate (SE%)” value is recorded as 9.34 (56) L; the “k syn, population estimate (SE%)” value is 58.6 (26) µg/h. For the same compound, in data set [2] (interoccasion variability between the two phases), the “k syn, IOV (SE%)” value is 22 (57) %. The “fold change” value in data set [1] is listed as 3.9 fold. Also, in data set [3], the “mean plasma AUC0-tlast ratio, observed” value is 1.95.
Consider `CCCN(CCC)S(=O)(=O)c1ccc(C(=O)O)cc1` [Probenecid, probenecid], for which the “ka, population estimate (SE%)” value in data set [4] (absorption rate constant) was 0.74 (45) /h. Besides, in data set [4], the “CL, IIV (SE%)” value is reported as 23 (23) % and the “V, IIV (SE%)” value is recorded as 40 (29) %. In addition, in data set [4] (listed as probenecid), the “CL, IIV (SE%)” value worked out at 23% and the “V, IIV (SE%)” value is reported as 40%. Further, the “V, population estimate (SE%)” value in data set [4] (probenecid one-compartment model) is 15 (22) L.
